Data set [1] concerns the target HLA-A*24:02 (Homo sapiens, UniProt P04439, D101N/D140Y/D185E/E176V/E190D/F33S/G103R/G107R/I119L/I121M/I306V/K335N/L105A/L180Q/L300P/N151K/N90K/Q86E/Q94H/R106L/R138H/R89G/T104I/T345S/V100E/W191G/Y123F). The data set is classed as binding.
For data set [2], the target named is T1, HLA-A*02:01 (Homo sapiens, UniProt P04439, D140Y/D185E/D98H/E176V/E277Q/G131W/G231S/I119V/I121R/I166T/I218V/L300P/L318F/N151K/N90K/P208A/P217A/Q86G/Q94H/R138H/R169H/T345S).
T1 construct: T2 cells can usually only express a low level of empty MHC class I molecules on the cell surface; endogenous in cells; host or cells: T2-A24 cells (human lymphoblastoid T2 cells)
The data set is classed as binding.

Data set [3] concerns peripheral blood mononuclear cells derived from HLA-A*02:01-positive healthy individuals. The data set can be described thus: CTL inducibility using human peripheral blood mononuclear cells, IFNγ ELISPOT. Particulars: peptide 20 μg/mL, IL-2 100 U/mL, about 2 weeks, FIGS. 39-43. Format: cell-based. The method, then: (§1) Subsequently, approximately 1×10^5 cells were plated in each well of a 96-well U bottom plate, and cultured at 37° C. under 5% CO2. At this time, human IL-2 and peptide were added at 100 U/mL and 20 μg/mL, respectively. The medium was exchanged every 3 or 4 days and an IFNγ ELISPOT assay was carried out after about 2 weeks. On the day before the assay, ELISPOT plates were treated with anti-IFNγ antibody, and on the day of assay, they were blocked with RPMI1640 medium containing 10% fetal calf serum at room temperature for about 2 hours. The human peripheral blood mononuclear cells in the culture were washed with an AIM-V medium containing 10% human-derived serum and plated in each well of the blocked ELISPOT plate. After culturing at 37° C. under 5% CO2 for 16 to 18 hours, the supernatant was removed and the ELISPOT plates were subjected to color development according to the attached protocol. The number of colored spots was measured with an ELISPOT analyzer manufactured by Cellular Technology Limited. […] In addition, black bars indicate the number of spots detected under peptide stimulation conditions, and white bars indicate the number of spots (controls) detected under no peptide pulse conditions.

For data set [4], the system named is peripheral blood mononuclear cells derived from HLA-A*24:02-positive healthy individuals. The description is as above. The data set is classed as cell-based. As to conditions: peptide 20 μg/mL, IL-2 100 U/mL, about 2 weeks, FIGS. 44, 45. How it is done: as §1
The subject of data set [5] is T2-A24 cells. The data set can be described thus: Cytotoxicity test (LDH release) of CTLs toward peptide-pulsed T2-A24 cells. Format: cell-based, human. As to conditions: peptide pulse 20 μg/mL; E/T ratio 1, 3, 9; CTL induced by IV9; FIG. 10. The method, then: (§2) T2-A24 cells, SW480-SP, SW480-MP, and K562 HLA-class I-deficient leukemia cells (obtained from ATCC) were suspended in 10% FBS-supplemented RPMI at a cell concentration of 1×10^6 cells/mL. Washing was carried out three times with 10 mL of 10% FBS-supplemented RPMI.
(§3) T2-A24 cells were pulsed with IV9 peptide and HIV584-594 peptide as a positive control for T2-A24 cell binding, at a concentration of 20 μg/mL at room temperature for 1 hour. As a negative control, a group without peptide pulses was used. With regard to experimental group of T2-A24 cells, three groups were defined: [1] no peptide pulse, [2] HIV584-594 peptide pulse, and [3] IV9 peptide pulse. In addition, K562 was pulsed with IV9 peptide under the same conditions. Both SW480-SP and SW480-MP groups were used without peptide pulses. After the peptide pulse, the cells were washed twice with PBS. The cells of each group were plated on each well at 1×10^5 cells/100 μL.
(§4) Respective numbers of effector cells (CTLs) were plated on each well so that the effector/target ratio (E/T ratio) became 1, 3, and 9. Effector cells were plated as a spontaneous release well. To the maximum release well, 4% of NP-40-added PBS was added to the target cells so that the final concentration became 2%. […] After 10 minutes, fluorescence intensity of each well was measured by Terra Scan. Cytotoxic activity was calculated using the equation below. […]
For orientation: LDH leaks from cells whose membrane has failed.

Data set [6] deals with SW480-MP. The data set can be described thus: Cytotoxicity test (LDH release) of CTLs toward SW480-MP without peptide pulse. The data set is classed as cell-based, human. As to conditions: CTL induced by IV9, FIG. 10. The method, then:
as §2, §3, §4

The subject of data set [7] is human colon cancer cell line (SW480). The experiment in a line: Detection of SP fraction by Hoechst 33342/PI flow cytometry. The data set is classed as cell-based. As to conditions: verapamil final concentration 75 μM; Hoechst 33342 5.0 μM; FIG. 1. How it is done:
5% fetal calf serum (FCS (HyClone Laboratories))-supplemented DMEM (Sigma-Aldrich) medium was prepared as a medium and warmed at 37° C. Verapamil (Sigma-Aldrich) was adjusted to 50 mM and diluted to 5 mM using the 5% FCS-supplemented DMEM medium. Hoechst 33342 (Lonza) was adjusted to 250 μg/mL using the 5% FCS-supplemented DMEM medium. DNase I (Qiagen) was adjusted to 1 mg/mL using DDW and sterilized by filtration using a 0.2 μm filter.
A human colon cancer cell line (SW480 (ATCC)) was suspended in 4 mL of the 5% FCS-supplemented DMEM medium, and the number of cells was counted. Furthermore, the 5% FCS-supplemented DMEM medium was added so as to adjust the cell concentration to 10×10^6 cells/mL, thus giving a sample. Using part of the sample, dispensing was carried out; verapamil was not added to a main sample (verapamil(−) sample), and verapamil was added to a secondary sample so as to give a final concentration of 75 μM (verapamil(+) sample). Subsequently, the Hoechst 33342 solution was added to the verapamil(+) sample and the verapamil(−) sample so as to give a Hoechst 33342 final concentration of 5.0 μM. […]
First, cells in the verapamil(−) sample were analyzed, and cells in a cell group (side population (SP)) having low emission intensity compared with a main cell group (main population (MP)) were detected (FIG. 1).
(In general: A flow cytometer gives signals particle by particle.)

Several values for one entry are separate records, joined by “and”; a condition that tells them apart may be missing. Equal values may be shown once. Where no end group is shown, it is not given here.

As for 23 (YLLLEPEGII) [compound 23], in data set [1], the “MFI HLA-A24” value was determined as 1.4.
With 20 (HVLMHMMLEA) [compound 20], the “MFI HLA-A24” value in data set [1] turned out to be 1.3.
For “EADPTGHSY [HLA-A*02:01 Negative control, MAGE-1161-169 peptide as an HLA-A02-negative control, reference compound]”, the “HLA-A*02:01 Negative control (MFI)” value in data set [2] stood at 1.0.
On to 6 (KILCDRGAKL) [compound 6], for which, in data set [3], the “induction of peptide-specific CTLs from PBMC” value (“induction” for short) is recorded as “able to induce peptide-specific CTLs”.
On to “RGYVYQGL [HLA-A*24:02 Negative control, reference compound]”, for which, in data set [1], the “HLA-A*24:02 Negative control (MFI)” value is reported as 1.0.
With 5 (SVLFGHVECL) [compound 5], the “induction” value is “able to induce peptide-specific CTLs” in data set [3]; “has CTL inducibility in both HLA-A02 type and HLA-A24 type subjects” in data set [4].
For the compound “RYLRDQQLL [HLA-A*24:02 Positive control, HIV584-592 peptide as an HLA-A24-positive control, reference compound]”, in data set [1], the “HLA-A*24:02 Positive control (MFI)” value is 2.6 and 3.3 and 2.8.
As for 41 (LLLNHGAARI) [compound 41], the “MFI HLA-A02” value in data set [2] came out at 1.3.
Turning to 17 (SILCAKQLV) [compound 17], in data set [1], the “MFI HLA-A24” value was 1.3.
Regarding 9 (CYSLSGHTAL) [compound 9], the “induction” value in data set [3] is recorded as “able to induce peptide-specific CTLs”.
For the compound IYPPQFHKV [SEQ ID No. 3], the “cytotoxic activity of CTLs toward peptide-pulsed T2-A24 cells” value in data set [5] is given as “high cytotoxic activity”. In addition, the “cytotoxic activity of CTLs toward SW480-MP” value in data set [6] was “only a similar cytotoxic activity as [1] no peptide pulse group and [2] HIV peptide pulse group”.
Regarding 4 (HLSVLFGHV) [compound 4], the “induction” value in data set [3] was “able to induce peptide-specific CTLs”.
Take 8 (HFGLSELVAFYV) [compound 8]: the “induction” value in data set [3] was “able to induce peptide-specific CTLs”; in data set [4], “has CTL inducibility in both HLA-A02 type and HLA-A24 type subjects”.
For 34 (FEVEDENMVL) [compound 34], in data set [1], the “MFI HLA-A24” value is listed as 1.4.
On to `COc1ccc(CCN(C)CCCC(C#N)(c2ccc(OC)c(OC)c2)C(C)C)cc1OC` (centres unmarked) [verapamil, Verapamil], for which, in data set [7], the “SP cells in flow cytometry” value was “SP cells disappeared”.
As to 28 (RIYPPQFHKV) [compound 28], the “MFI HLA-A02” value in data set [2] is reported as 1.4.
Consider 40 (QYVLKVTSV) [compound 40], for which the “MFI HLA-A24” value in data set [1] is 1.3.

The record behind these values is US10765729B2, “Tumor antigen peptide” (Sapporo Medical University, priority 2014, dated 2020).
